In series [1] the test system is rats. The conditions noted are these: administered every day for 52 weeks at 1,200 mg/kg/day (Williams et al. 1999); cited from earlier work.
For series [2] the following is noted: in vitro; cited from earlier work.
The subject of series [3] is Aging-accelerated model mice (SAMP1). Description: Aging preventing (retarding) effect in aging-accelerated model mice, aging degree score. Type of series: in vivo. As to conditions: SAMP1 female mice, about 150 to 250 mg/kg/day; for aging degree score (increase): feed containing 0.2% test substance, versus control feed, FIG. 1 / FIG. 2. An excerpt:
In evaluating such antiaging effects, for example, aging-accelerated model mice, can be used as an in vivo evaluation model. This mouse is a model mouse discovered and bred at Kyoto University, Japan, which develops the state of aging early and markedly.
Aging-accelerated model mice (SAMP1, 3-week-old females) were allowed free access to a feed (CE-2, product of CLEA Japan, Inc.) containing 0.2% reduced coenzyme Q10 (containing about 1% of oxidized coenzyme Q10) obtained in Production Example 1, and the aging degree of each mouse was quantified with time according to the aging degree score mentioned below. The dose of reduced coenzyme Q10 as estimated from the feed consumption and animal weight corresponded to about 150 to 250 mg/kg/day. A control group was given the feed alone (CE-2, product of CLEA Japan, Inc.).
The aging-accelerated model mice used were model mice discovered and bred at Kyoto University which develop the state of aging early and markedly. These mice show the state of aging quite similar to that of humans, and are useful model animals for in vivo testing for antiaging effects. The aging degree scoring system employed was the scoring system established by the Council for SAM Research. Thus, scores of 0 to 4 were given to each animal with respect to each of the following 11 items: 1: decrease in activity (searching behavior), 2: decrease in passivity (pinching escaping behavior), 3: loss of hair luster, 4: roughening of hair, 5: loss of hair, 6: skin ulcer, 7: periophthalmic lesions (blepharitis and periophthalmic erosion), 8: corneal clouding, 9: corneal ulcer, 10: cataract, 11: increased anterior or backward spinal curvature. The conditions found in a group of young mice about 3 months of age were taken as standards and given the score 0 (zero). Thus, a higher score indicates more advanced aging.
The test of Example 1 was performed in the same manner except that oxidized coenzyme Q10 was used in lieu of reduced coenzyme Q10. […]

For the compound `COC1=C(OC)C(=O)C(C/C=C(\C)CC/C=C(\C)CC/C=C(\C)CC/C=C(\C)CC/C=C(\C)CC/C=C(\C)CC/C=C(\C)CC/C=C(\C)CC/C=C(\C)CCC=C(C)C)=C(C)C1=O` [coenzyme Q10], in series [1], the toxic effect result is listed as “no toxic effect”.
Turning to `COC1=C(OC)C(=O)C(C/C=C(\C)CC/C=C(\C)CC/C=C(\C)CC/C=C(\C)CC/C=C(\C)CC/C=C(\C)CC/C=C(\C)CC/C=C(\C)CC/C=C(\C)CCC=C(C)C)=C(C)C1=O` [oxidized coenzyme Q10], the antioxidant activity result in series [2] was “does not show antioxidant activity”. Also, the “aging degree score (increase)” value in series [3] is reported as “suppressed to a certain extent”. Besides, the “aging preventing effect compared with reduced coenzyme Q10” value in series [3] (feed, FIG. 2 vs FIG. 1) is listed as “weak”.
Take `COc1c(O)c(C)c(C/C=C(\C)CC/C=C(\C)CC/C=C(\C)CC/C=C(\C)CC/C=C(\C)CC/C=C(\C)CC/C=C(\C)CC/C=C(\C)CC/C=C(\C)CCC=C(C)C)c(O)c1OC` [reduced coenzyme Q10]: the antioxidant activity entry in series [2] is “shows antioxidant activity”. In series [3], the “aging degree score (increase)” value is recorded as “distinctly prevented from increasing”.

(Values after patent publication US20050154066A1, “Antiaging composition” (KANEKA CORPORATION, priority 2004, published 2005).)
